67 compounds from the supplement of paper PMC10290057 can be followed below.

Molecules are shown by their SMILES. Where a name gives a salt, the structure may show the parent alone.
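Note: Luminescence-based viability readout, five doses per compound, normalized against on-plate DMSO and empty-well controls, followed by dose-response curve fitting for every drug.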

The test concerns HCT116. The test can be described thus: efficacy (fitted maximal change in viability relative to DMSO control); higher = less cytotoxic (negative = loss of viability). As to conditions: 48 h.
Take `O=C(O)c1cc(O)c2c(c1)C(=O)c1cccc(O)c1C2=O` [Rhein]: the efficacy is -14.9%. As for `NC(=O)c1ncn([C@@H]2O[C@H](CO)[C@@H](O)[C@H]2O)n1` [Ribavirin], the efficacy amounted to 18.5%. For `CN(C)C(=O)c1cc2cnc(Nc3ccc(N4CCNCC4)cn3)nc2n1C1CCCC1` [Ribociclib (LEE011)], the efficacy was -12.5%.

As for `CC1=CC/2=C(C=C1C)N(C[C@@H](O)[C@@H](O)[C@@H](O)CO)C/3=N/C(=O)NC(=O)C3=N2` [Riboflavin], the efficacy is -9.8%. Regarding `CO[C@H]1/C=C/O[C@@]2(C)Oc3c(C)c(O)c4c(O)c(c(/C=N/N5CCN(C)CC5)c(O)c4c3C2=O)NC(=O)/C(C)=C\C=C\[C@H](C)[C@H](O)[C@@H](C)[C@@H](O)[C@@H](C)[C@H](OC(C)=O)[C@@H]1C` [Rifampicin], the efficacy was -20.5%. In the case of `CO[C@H]1/C=C/O[C@@]2(C)Oc3c(C)c(O)c4c(O)c(c(/C=N\N5CCN(C6CCCC6)CC5)c(O)c4c3C2=O)NC(=O)/C(C)=C\C=C\[C@H](C)[C@H](O)[C@@H](C)[C@@H](O)[C@@H](C)[C@H](OC(C)=O)[C@@H]1C` [Rifapentine] it was -59.1%; in that of `CO[C@H]1/C=C/O[C@@]2(C)Oc3c(C)c(O)c4c(O)c(c5c(nc6cc(C)ccn65)c4c3C2=O)NC(=O)/C(C)=C\C=C\[C@H](C)[C@H](O)[C@@H](C)[C@@H](O)[C@@H](C)[C@H](OC(C)=O)[C@@H]1C` [Rifaximin], -88.6%. On to `C1C\N=C(\NC(C2CC2)C3CC3)O1` [Rilmenidine], for which the efficacy was -6.97%. In the case of `COC(=O)N(C)c1c(N)nc(-c2nn(Cc3ccccc3F)c3ncccc23)nc1N` [Riociguat] it was -5.69%; in that of `C[C@H]1CNCCCN1[S+](=O)([O-])c1cccc2cncc(F)c12` [Ripasudil], -11%; in that of `O=P(O)(O)C(O)(Cc1cccnc1)P(=O)(O)[O][Na]` (configuration not stated) [Risedronate sodium], -16.1%.

On to `CC(NCCc1ccc(O)cc1)C(O)c1ccc(O)cc1` (configuration not stated) [Ritodrine hydrochloride], for which the efficacy is -19.4%. In the case of `O=C(NC[C@H]1CN(c2ccc(N3CCOCC3=O)cc2)C(=O)O1)c1ccc(Cl)s1` [Rivaroxaban] it was -24.9%.

As to `C[N]1C=C(C2=C1C=CC=C2)\C3=C(\C(=O)NC3=O)C4=C5CC(CN)CC[N]5C6=C4C=CC=C6` (configuration not stated) [Ro-31-8425], the efficacy was -33.7%.

`COc1cc(C(C)C)c(Oc2cnc(NC(CO)CO)nc2N)cc1I` [Ro-51]: the efficacy was found to be 7.2%.

As for `O=C(C[C@@H]1C/C=C\CCC(=O)O[C@H](c2ccccc2)CNC1=O)NCc1ccc(Cl)cc1` [Robotnikinin], the efficacy was -22.6%. As for `C=CC[N+]1([C@H]2C[C@H]3[C@@H]4CC[C@H]5C[C@H](O)[C@@H](N6CCOCC6)C[C@]5(C)[C@H]4CC[C@]3(C)[C@H]2OC(C)=O)CCCC1` [Rocuronium bromide], the figure is -14.6%. In the case of `C[S+]([O-])(=O)C1=CC=C(C=C1)C/2=C(/C(=O)OC2)C3=CC=CC=C3` [Rofecoxib] it was -13.7%; in that of `O=C(Nc1c(Cl)cncc1Cl)c1ccc(OC(F)F)c(OCC2CC2)c1` [Roflumilast], -20.6%; in that of `COc1ccc(C2CNC(=O)C2)cc1OC1CCCC1` (configuration not stated) [Rolipram], -7.4%. In the case of `CCCn1c(=O)c2[nH]c(C34CC5CC3C[C@@H](C5)C4)nc2n(CCC)c1=O` [Rolofylline] it was -6.71%. As for `CN(C1=CC=CC=C1)C(=O)C/2=C(O)/C3=C(C=CC=C3)N(C)C2=O` [Roquinimex], the efficacy is -11.9%. As for `CN(CCOc1ccc(CC2SC(=O)NC2=O)cc1)c1ccccn1` (configuration not stated) [Rosiglitazone], the figure is -13.8%; as for `CC(=O)c1c(O)c(C)c(O)c(Cc2c(O)c3c(c(C(=O)/C=C/c4ccccc4)c2O)OC(C)(C)C=C3)c1O` [Rottlerin], -8.89%; as for `CCOC(=O)/C=C/[C@H](C[C@@H]1CCNC1=O)NC(=O)[C@@H](CC(=O)[C@@H](NC(=O)c1cc(C)on1)C(C)C)Cc1ccc(F)cc1` [Rupintrivir], -12.7%. In the case of `CC(C)(C)c1cc(C(=O)O)c(NC(=O)Nc2ccc3[nH]ncc3c2)s1` [S6K-18], the efficacy was -16.6%. In the case of `Cc1ccc([S+](=O)([O-])OCC(=O)Nc2ccc(C(=O)O)c(O)c2)cc1` [S31-201], the efficacy is -5.21%. For the compound `CC(C)Nc1cc(C(F)(F)F)cc2nc(NC(=O)c3cccnc3)nn12` [S-99], the efficacy was -15%.

For the compound `C[C@@H]1COCCN1C\2=C\C(=O)N\3CC[C@H](N(CC4=CN=CC(=C4)Cl)C3=N2)C(F)(F)F` [SAR-405], the efficacy is -26.6%. Take `O=[S+]([O-])(CC1CS1)c1ccc(Oc2ccccc2)cc1` (configuration not stated) [SB-3CT]: the efficacy is -55.8%. In the case of `O=C(CO)N1CCC(c2n[nH]c(-c3ccc(Cl)cc3)c2-c2ccncn2)CC1` [SD-06] it was 17.8%; in that of `NC(=O)c1ccc2[nH]ccc2c1` [SD-169], -11.3%; in that of `Fc1ccc(Cl)cc1-c1nc(Nc2ccncc2)c2nccnc2n1` [SD-208], -22.5%. As for `O=C(NCC(=O)N1CCCC1)Nc1ccc2cnccc2c1` [SGC-707], the figure is -18%; as for `Cc1cc(C)cc(Oc2ccc(CNC(=O)[C@H](C)N)cc2C)c1` [SGC-2085], -101%.

In the case of `Cn1cc(-c2ccc3nnc(Sc4ccc5ncccc5c4)n3n2)cn1` [SGX-523], the efficacy is -6.72%. Consider `CC1(N)CCN(c2cnc(-c3cccc(Cl)c3Cl)c(N)n2)CC1` [SHP-099], for which the efficacy was -5.94%.

With `Cc1cccc(-c2n[nH]cc2-c2ccc3ncccc3n2)n1` [SJN-2511], the efficacy came to 6.89%. For the compound `Oc1ccc(Nc2nc(-c3ccc(Cl)cc3)cs2)cc1` [SKI-II], the efficacy is -62.8%.

As to `Cc1ccc(NC(=O)Nc2nnc(Sc3ncnc4cc(OCCCN5CCOCC5)ccc34)s2)cc1` [SKLB4771], the efficacy was -24.1%. In the case of `CC1OC(OC/2=C(/OC3=C(C(=CC(=C3)O)O)C2=O)C4=CC=C(O)C=C4)C(O)C(OC(C)=O)C1OC(C)=O` (configuration not stated) [SL-0101-1] it was 6.12%; in that of `O=C1NC(=O)/C(=C/c2cccc(C(F)(F)F)c2)S1` [SMI-4a], -22.5%. As for `CC1(C)CC(=O)c2c(C(F)(F)F)nn(-c3ccc(C(N)=O)c(NC4CCC(O)CC4)c3)c2C1` (configuration not stated) [SNX-2112], the figure is -53.8%; as for `CC1(C)CC(=O)c2c(C(F)(F)F)nn(-c3ccc(C(N)=O)c(NC4CCC(OC(=O)CN)CC4)c3)c2C1` (configuration not stated) [SNX-5422], -57.9%; as for `Cc1c(C)n(Cc2ccc(-c3ccccc3C(=O)O)cc2)c2ccc(C(=O)N[C@@H](C)c3ccc([N+](=O)[O-])cc3)cc12` [SR-1664], 14.2%. For `Fc1cccc(-n2cnc3c(NCc4nc5ccc(F)c(F)c5[nH]4)nc(N4CCOCC4)nc32)c1` [SR-3029], the efficacy is -53.1%. In the case of `Cc1cc(C)c([S+](=O)([O-])N(CCc2cccc(Br)c2)Cc2ccc(-c3cccc([S+](C)(=O)[O-])c3)cc2)c(C)c1` [SR-9243] it was 15.4%; in that of `COCCCc1sc(-c2ccccc2)nc1C(=O)Nc1ccccc1-c1nc2cc(CN3CCCC3)cnc2s1` [SRT-3025], 7.71%. As for `CC1=C(F)C=CC(=C1)N2C(=O)\C=C/C3=C2C4=C([NH]C=C4)N=C3` [STK16-IN-1], the figure is -45.7%; as for `Cc1c[nH]c(/C=C2\C(=O)Nc3ccccc32)c1CCC(=O)O` [SU-5402], -32.1%.

Regarding `CC(C)(C)NCC(O)c1ccc(O)c(CO)c1` (configuration not stated) [Salbutamol sulfate], the efficacy is -14.1%.

With `OCc1ccccc1O[C@@H]1O[C@H](CO)[C@@H](O)[C@H](O)[C@H]1O` [Salicin], the efficacy was 14%. In the case of `CC(C)=CCC/C(C)=C/CC/C(C)=C/CSc1ccccc1C(=O)O` [Salirasib] it was -28.8%. As for `CNC(=O)CN1CCC(Oc2cc3c(Nc4cccc(Cl)c4F)ncnc3cc2OC)CC1` [Sapitinib], the figure is -49.3%; as for `OC(=O)\C1=C\N(C2=CC=C(F)C=C2)C3=C(C=C(F)C(=C3)N4CCNCC4)C1=O` [Sarafloxacin hydrochloride], 14%; as for `C[C@@H](c1ccc2nccn2c1)n1nnc2ncc(-c3cnn(C)c3)nc21` [Savolitinib], -32.1%.

On to `N#C[C@@H]1C[C@@H]2C[C@@H]2N1C(=O)[C@@H](N)C12CC3CC(CC(O)(C3)C1)C2` [Saxagliptin], for which the efficacy was -9.01%. In the case of `COc1nc(-c2ccc3c(c2)OCO3)n(-c2ccc(NC(=O)CSc3ccccc3)cc2)n1` [Secin H3] it was -15.5%; in that of `Cc1ncc([N+](=O)[O-])n1CC(C)O` (configuration not stated) [Secnidazole], -13.5%. Take `COc1cc(C[C@@H](CO)[C@H](CO)Cc2ccc(O)c(OC)c2)ccc1O` [Secoisolariciresinol]: the efficacy turned out to be 9%. In the case of `CC(C)[C@H](O)C(=O)N[C@@H](C)C(=O)N[C@@H]1C(=O)N(C)CCc2ccccc21` [Semagacestat] it was -9.53%; in that of `Cc1cc(C)c(/C=C2\C(=O)Nc3ccccc32)[nH]1` [Semaxanib], -29.1%; in that of `C\C1=C(/C)C(=O)\C(=C(\C)C1=O)C(CCCCCC(O)=O)C2=CC=CC=C2` (configuration not stated) [Seratrodast], -11.8%. As to `CC(C)[C@](O)(c1ccc2cc(OC(F)F)c(OC(F)F)cc2c1)c1c[nH]nn1` [Seviteronel], the efficacy is -56.2%. Turning to `CC(C)=CC[C@@H](O)C/1=C/C(=O)C2=C(O)C=CC(=C2C1=O)O` [Shikonin], the efficacy is -13.1%. As for `CC(C)CC(N(C)C)C1(c2ccc(Cl)cc2)CCC1` (configuration not stated) [Sibutramine hydrochloride], the figure is -45.3%. As for `COc1cc([C@H]2Oc3cc([C@H]4Oc5cc(O)cc(O)c5C(=O)[C@@H]4O)ccc3O[C@@H]2CO)ccc1O` [Silybin], the figure is -13.3%.
